This is an account of results in patent publication US6187800A, “Method for the prevention and treatment of mastitis” (Novartis Animal Health U.S., Inc., priority 1997, dated 2001).

Data set [1] has as its system pathogens causing bovine mastitis. Put plainly: Activity against mastitis pathogens (general statement). The data set is classed as cell-based.
A short description of data set [2]: Hydrophobicity and water solubility.

For `C/C=C(\NC(=O)c1csc(-c2csc(-c3ccc4c(n3)-c3csc(n3)[C@H]([C@@H](C)O)NC(=O)c3csc(n3)[C@H](C(C)C)NC(=O)c3csc(n3)/C(=C/C)NC(=O)[C@H]([C@@H](C)O)NC(=O)c3csc-4n3)n2)n1)C(=O)NCC(C)=O` [P2, micrococcin P2], the “activity against pathogens causing bovine mastitis” value in data set [1] is “highly active against pathogens causing bovine mastitis”. In data set [2], the hydrophobicity entry is reported as “highly hydrophobic” and the solubility in water result is listed as “poorly soluble in water”.
